Data: US8318455B2, “Inducible/regulated gene expression system in E coli” (priority 2007, dated 2012)
Like-named read-outs stand apart in the source and are kept apart here.

Experiments:
[1] = test system: GFP expression in E. coli BL21(DE3)pLysS; format: cell-based, Escherichia coli; details: for GFP yield / course of induced GFP expression (time of maximum): 100 μm inducer; for state of the induced culture (lysis, foaming): fermenter culture, after 8 hours post induction; for specific yield of GFP / total yield of GFP: defined medium A; for course of induced GFP expression (time of maximum): post induction, FIG. 10A
Method: Benchtop Fermentations. Batch fermentation experiments were carried out in a 14-I bioreactor (BioFlo 110, New Brunswick Scientific, Edison, N.J. USA) to compare GFP production yield between T7 expression system and cumate system. For the batch culture, pre-cultures were used to inoculate the bioreactor filled with 5 l of medium A (Yoon et al, 2003) and initial O.D. was adjusted to 0.1 for both expression systems. The cultures induced with IPTG for T7 system and cumate for cumate system when O.D. reached at 38 to 42. For cultures carried out in bioreactors, pH and dissolved oxygen were controlled at 7 and 25%, respectively.
(§1) Detection of gene expression. Detection of GFP was carried out by fluorescence microscopy, and quantified by using a SPECTRAFluor Plus (TECAN Austria Gmbh, Grodïg, Austria) under excitation and emission wavelengths of 485 and 508 nm, respectively. Concentration of GFP was calculated based on a linear relationship between concentration and fluorescence units determined using solutions of purified GFP (Qbiogene). The biomass (X) was determined by cell dry weight measurement of the samples (Moisture Analyzer MA 30, Sartorius).
All results obtained were in defined medium A. The value ‘x’ is dry weight in g/L.
All results obtained were in defined medium A.

[2] = test system: GFP expression in host cells; assay: Plate assay: GFP expression, T7 system vs cumate system; format: cell-based, Escherichia coli; details: plates with IPTG (1 mM) or cumate (0.12 mM); FIG. 4
Method: Host cell transformation and gene expression. pNEW vectors harbouring different genes of interest were transformed into various E. coli cells by chemical or electroporation methods (Sambrook and Russell, 2000). The transformed cells were grown at 37° C. in LB medium, and expression of genes under developed system was induced with 20 μg/ml cumate or as indicated.
as §1
FIG. 4 depicts a comparison between T7 system and cumate system for GFP expression in plates containing IPTG (1 mM) and cumate (0.12 mM) as inducer, respectively.

[3] = 45 minutes post induction, FIG. 9C
[4] = 2 hours post induction, FIG. 9E
[5] = 3 hours post induction, FIG. 9F
[6] = inducer 100 μM, induction time 1 h
[7] = inducer 100 μM, induction time 2 h
[8] = inducer 100 μM, induction time 4 h
[9] = inducer 100 μM, induction time 5 h
[10] = inducer 100 μM, induction time 6 h
[11] = inducer 100 μM, induction time 7 h
[12] = inducer 100 μM, induction time 8 h
[13] = inducer 100 μM, induction time 9 h
[14] = inducer 1000 μM, induction time 1 h
[15] = inducer 1000 μM, induction time 2 h
[16] = inducer 1000 μM, induction time 4 h
[17] = inducer 1000 μM, induction time 5 h
[18] = inducer 1000 μM, induction time 6 h
[19] = inducer 1000 μM, induction time 7 h
[20] = inducer 1000 μM, induction time 8 h
[21] = inducer 1000 μM, induction time 9 h

| SMILES | GFP yield [1, 3] | GFP yield ([1]; 1 hour post induction, FIG. 9D) | GFP yield [1, 4] | GFP yield [1, 5] | state of the induced culture (lysis, foaming) [1] | specific yield of GFP [1, 6] | total yield of GFP [1, 6] | specific yield of GFP [1, 7] | total yield of GFP [1, 7] | specific yield of GFP [1, 8] | total yield of GFP [1, 8] | specific yield of GFP [1, 9] | total yield of GFP [1, 9] | specific yield of GFP [1, 10] | total yield of GFP [1, 10] | specific yield of GFP [1, 11] | total yield of GFP [1, 11] | specific yield of GFP [1, 12] | total yield of GFP [1, 12] | specific yield of GFP [1, 13] | other results |
| --- | --- | --- | --- | --- | --- | --- | --- | --- | --- | --- | --- | --- | --- | --- | --- | --- | --- | --- | --- | --- | --- |
| CC(C)S[C@@H]1O[C@H](CO)[C@H](O)[C@H](O)[C@H]1O [IPTG, isopropyl-beta-D-thiogalactopyranoside] | 27 mg/g | 37 mg/g | 74 mg/g | 90 mg/g | quickly began to lyse | 37 mg/g x | 554 mg/L | 74 mg/g x | 1300 mg/L | 90 mg/g x | 1778 mg/L | 96 mg/g x | 2486 mg/L | 85 mg/g x | 2035 mg/L | 58 mg/g x | 1567 mg/L | 68 mg/g x | 1948 mg/L | 67 mg/g x | total yield of GFP [1, 13]: 2090 mg/L; specific yield of GFP [1, 14]: 37 mg/g x; total yield of GFP [1, 14]: 606 mg/L; specific yield of GFP [1, 15]: 60 mg/g x; total yield of GFP [1, 15]: 1191 mg/L; specific yield of GFP [1, 16]: 83 mg/g x; total yield of GFP [1, 16]: 1966 mg/L; specific yield of GFP [1, 17]: 103 mg/g x; total yield of GFP [1, 17]: 2464 mg/L; specific yield of GFP [1, 18]: 118 mg/g x; total yield of GFP [1, 18]: 3340 mg/L; specific yield of GFP [1, 19]: 135 mg/g x; total yield of GFP [1, 19]: 4238 mg/L; specific yield of GFP [1, 20]: 145 mg/g x; total yield of GFP [1, 20]: 4079 mg/L; course of induced GFP expression (time of maximum) [1]: 4 h |
| CC(C)c1ccc(C(=O)O)cc1 [Cumate, p-cumate] | 30 mg/g | 38 mg/g | 84 mg/g | 123 mg/g | no lysis occurred | 38 mg/g x | 602 mg/L | 84 mg/g x | 644 mg/L | 123 mg/g x | 3002 mg/L | 164 mg/g x | 4719 mg/L | 176 mg/g x | 5443 mg/L | 165 mg/g x | 6194 mg/L | 193 mg/g x | 6977 mg/L | 222 mg/g x | cumate induced GFP yield relative to IPTG induced culture ([1]; cultures induced with 1000 μM IPTG or cumate): more than double; total yield of GFP [1, 13]: 7838 mg/L; specific yield of GFP [1, 14]: 36 mg/g x; total yield of GFP [1, 14]: 486 mg/L; specific yield of GFP [1, 15]: 71 mg/g x; total yield of GFP [1, 15]: 1459 mg/L; specific yield of GFP [1, 16]: 110 mg/g x; total yield of GFP [1, 16]: 2851 mg/L; specific yield of GFP [1, 17]: 141 mg/g x; total yield of GFP [1, 17]: 4593 mg/L; specific yield of GFP [1, 18]: 149 mg/g x; total yield of GFP [1, 18]: 4885 mg/L; specific yield of GFP [1, 19]: 155 mg/g x; total yield of GFP [1, 19]: 5989 mg/L; specific yield of GFP [1, 20]: 249 mg/g x; total yield of GFP [1, 20]: 9666 mg/L; specific yield of GFP [1, 21]: 289 mg/g x; total yield of GFP [1, 21]: 11150 mg/L; course of induced GFP expression (time of maximum) [1]: > 8 h; GFP expression on plates, comparison of systems [2]: dramatically outperforms the IPTG system |
